Reference: ChEMBL document CHEMBL1154337, “Synthesis of a novel C2/C2'-aryl-substituted pyrrolo[2,1-c][1,4]benzodiazepine dimer prodrug with improved water solubility and reduced DNA reaction rate” (Bioorg Med Chem Lett, 2009)

What was measured:
MCF7 = test: Cytotoxicity against human MCF7 cells by alamar blue assay; type: functional
Nucleic Acid = test: Induction of Escherichia coli pUC18 DNA interstrand crosslinking activity assessed as time required to reach peak; type: nucleic-acid assay
A549 = test: Cytotoxicity against human A549 cells by alamar blue assay; type: functional
LOX IMVI = test: Cytotoxicity against human LOXIMVI cells by alamar blue assay; type: functional
K562 = test: Cytotoxicity against human K562 cells by alamar blue assay; type: functional
A2780 = test: Cytotoxicity against human A2780 cells by alamar blue assay; type: functional
[1] = Cytotoxicity against human LNCaP-FGC cells by alamar blue assay; type: functional; conditions: LNCaP-Clone-FGC
RPMI-8226 = test: Cytotoxicity against human RPMI8226 cells by alamar blue assay; type: functional
DU-145 = test: Cytotoxicity against human DU145 cells by alamar blue assay; type: functional

Row | SMILES | GI50 (MCF7) [pM] | Activity (Nucleic Acid) [h] | GI50 (A549) [pM] | GI50 (LOX IMVI) [pM] | GI50 (K562) [pM] | GI50 (A2780) [pM] | GI50 [1] [pM] | GI50 (RPMI-8226) [pM] | GI50 (DU-145) [pM]
1 | COc1ccc(C2=CN3C(=O)c4cc(OC)c(OCCCOc5cc6c(cc5OC)C(=O)N5C=C(c7ccc(OC)cc7)C[C@H]5C=N6)cc4N=C[C@@H]3C2)cc1 | 18.6 | 2 | 33 | 22.5 | 13 | 2.4 | 2.7 | 5.1 | 15.4
2 | C=C1C[C@H]2C=Nc3cc(OCCCOc4cc5c(cc4OC)C(=O)N4CC(=C)C[C@H]4C=N5)c(OC)cc3C(=O)N2C1 [SJG-136] |  |  |  |  | 419 |  |  |  | 
